The record followed here is patent publication US11873290B2, “Pyridazinone compounds and uses thereof” (Edgewise Therapeutics, Inc., priority 2018, dated 2024).

SMILES strings stand for the structures.

This test has as its target skeletal myofibrils (myosin ATPase activity). Put plainly: Skeletal Myofibril ATPase Assay. Format: biochemical. Particulars: PK-LDH coupled, absorbance at 340 nm. As to the method:
Overview: Myosin ATPase activity is assessed by using a coupled reaction system, in which ADP generated by the myosin ATPase function is coupled to the disappearance of NADH through the pyruvate kinase/lactate dehydrogenase (PK-LDH) system. Myosin ATPase activity produces ADP, which is used as a substrate for PK to produce pyruvate and regenerate ATP. The pyruvate is then used as a substrate by LDH to oxidize NADH to NAD+. The rate of the reaction is monitored through the time-dependent disappearance of NADH using absorbance at 340 nm. Inhibition of ATPase activity by the assayed compounds is indicated by a reduced rate of NADH loss, relative to vehicle-treated controls, over the experimental time window. To assess the selectivity of the assayed compounds for skeletal myofibrils, the compounds are counter-screened in cardiac myofibrils.
Materials: The following stock solutions and reagents were used in the Skeletal Myofibril ATPase Assay:
Stock Solutions of pCa buffer. Combine PIPES, CaCl2, and EGTA solutions with 70 mL of water. Adjust pH to 7.0 and bring final volume to 100 mL.
Skeletal Myofibril ATPase Assay Procedure: BSA, ATP, NADH, PEP, and DTT solutions were thawed at room temperature, then transferred to ice. Pellet-frozen myofibrils (approximately twice the required volume) were transferred into a sufficiently large tube and capped. Myofibrils were thawed by rolling in a water bath for approximately 15 min at room temperature and cooled on ice. Buffers A and B were prepared by adjusting volumes as necessary for required number of wells and stored on ice. 0.5 μL of the compounds to be assayed were added into wells of a 384-well plate. Buffers A and B were mixed by inversion immediately prior to use, then 25 μL of each was dispensed using a Multidrop dispenser (Buffer A first, then Buffer B). The absorbance within the wells was measured at 340 nm, using a kinetic protocol in which the wells are read every 1.5-2 min for 1 h. The reaction rate was qualitatively assessed by subtracting the minimum absorbance value from the maximum value for each well, using either the SoftMax Pro plate reader software or a spreadsheet program such as Excel. Using GraphPad Prism 8.0, the data was normalized, with 100% activity defined as the absorbance change in the 1% DMSO vehicle wells and 0% assigned to no change in absorbance over the course of the experiment. The normalized data were fit to a variable-slope four-parameter logistic model, constraining the bottom to be 0 or greater. Compounds of Table 1 to 4 were tested and results of the assay appear in Table 5 herein. A=IC50 is less than or equal to 10 μM; B=IC50 is greater than 10 μM and less than 100 μM; C=IC50 is greater than 100 μM; […].
`O=c1ccc(-c2ccc(OC(F)F)cc2)nn1Cc1nc(C2CC2)no1` [Compound 208, 2((3-cyclopropyl-1,2,4-oxadiazol-5-yl)methyl)-6-(4-(difluoromethoxy)phenyl) pyridazine-3(2H)-one] registered a half-maximal inhibitory concentration (IC50) of less than 10 µM.

`COc1ncc(-c2ccc(=O)n(Cc3cncc(F)c3)n2)cn1` [Compound 69, 2-((5-fluoropyridin-3-yl)methyl)-6-(2-methoxypyrimidin-5-yl)pyridazine-3(2H)-one] showed an IC50 of less than 10 µM.

For `CN(CC(F)(F)F)c1ncc(-c2ccc(=O)n(Cc3cncc(F)c3)n2)cn1` [Compound 50, 2-((5-fluoropyridin-3-yl)methyl)-6-(2-(methyl(2,2,2-trifluoroethyl)amino)pyrimidin-5-yl)pyridazin-3(2H)-one], the IC50 was less than 10 µM.

Consider `CC[C@H](C)Oc1ncc(-c2ccc(=O)n(Cc3cncc(F)c3)n2)cn1` [Compound 120, (S)-6-(2-(sec-butoxy)pyrimidin-5-yl)-2((5-fluropyridin-3-yl)methyl)pyridazine-3(2H)-one], for which the half-inhibitory concentration (IC50) is less than 10 µM.

Take `CCc1noc(Cn2nc(-c3ccc(OC(F)F)cc3)ccc2=O)n1` [Compound 213, 6-(4-(difluoromethoxy)phenyl)-2-((3-ethyl-1,2,4-oxadiazol-5-yl)methyl)pyridazin-3(2H)-one]: the 50% inhibitory concentration (IC50) is 10 to 100 µM.

`Cc1ncc(Cn2nc(-c3cnc(OCC(F)(F)F)nc3)ccc2=O)cc1Cl` [Compound 87, 2-((5-chloro-6-methylpyridin-3-yl)methyl)-6-(2-(2,2,2-trifluoroethoxy)pyrimidin-5-yl)pyridazin-3(2H)-one] came in with a 50% inhibitory concentration (IC50) of less than 10 µM.

Take `COc1ccc(-c2ccc(=O)n(Cc3nc(-c4ccc(OC)cc4)no3)n2)cc1` [Compound 305, 6-(4-methoxyphenyl)-2-((3-(4-methoxyphenyl)-1,2,4-oxadiazol-5 yl)methyl)pyridazin-3(2H)-one]: the concentration for half-maximal inhibition (IC50) is less than 10 µM.

Compound `O=c1ccc(-c2ccc(OC(F)F)cc2)nn1Cc1nc(-c2ccccc2)co1` [Compound 237, 6-(4-(difluoromethoxy)phenyl)-2-((4-phenyloxazol-2-yl)methyl)pyridazin-3(2H)-one] returned a half-inhibitory concentration (IC50) of 10 to 100 µM.

The compound `Cc1nc(Cn2nc(-c3cnc(OCC(F)(F)F)nc3)ccc2=O)co1` [Compound 83, 2-((2-methyloxazol-4-yl)methyl)-6-(2-(2,2,2-trifluoroethoxy)pyrimidin-5-yl)pyridazin-3(2H)-one] showed an IC50 of 10 to 100 µM.

Regarding `COc1ccc(-c2ccc(=O)n(Cc3nc(-c4ccc(OC)cc4)no3)n2)cc1` [Compound 310, 6-(4-methoxyphenyl)-2-((3-(4-methoxyphenyl)-1,2,4-oxadiazol-5-yl)methyl)pyridazin-3(2H)-one], the half-inhibitory concentration (IC50) is less than 10 µM.

`O=c1ccc(-c2cnc(OCC(F)(F)F)nc2)nn1Cc1cnc(C2CCC2)s1` [Compound 122, 2-((2-cyclobutylthiazol-5-yl)methyl)-6-(2-(2,2,2-trifluoroethoxy)pyrimidin-5-yl)pyridazine-3(2H)-one] returned an IC50 of less than 10 µM.

Compound `O=c1ccc(-c2cnc(NC34CC(C3)C4)nc2)nn1Cc1cncc(F)c1` [Compound 64, 6-(2-(bicyclo[1.1.1]pentan-1-ylamino)pyrimidin-5-yl)-2-((5-fluoropyridin-3-yl)methyl)pyridazine-3(2H)-one] displayed a 50% inhibitory concentration (IC50) of less than 10 µM.

In turn, `COC(C)(C)COc1ncc(-c2ccc(=O)n(Cc3cncc(F)c3)n2)cn1` [Compound 125, 2-((5-fluoropyridin-3-yl)methyl)-6-(2-(2-methoxy-2-methylpropoxy)pyrimidin-5-yl)pyridazine-3(2H)-one] returned a 50% inhibitory concentration (IC50) of less than 10 µM.

As for `Cc1noc(Cn2nc(-c3ccc4c(c3)OCCCO4)ccc2=O)n1` [Compound 301, 6-(3,4-dihydro-2H-benzo[b][1,4]dioxepin-7-yl)-2-((3-methyl-1,2,4-oxadiazol-5-yl)methyl)pyridazin-3(2H)-one], the half-maximal inhibitory concentration (IC50) is greater than 100 µM.

With `O=c1ccc(-c2cnc(OCC(F)(F)F)nc2)nn1Cc1ccnc(O)c1` [Compound 42, 2-((2-hydroxypyridin-4-yl)methyl)-6-(2-(2,2,2-trifluoroethoxy)pyrimidin-5-yl)pyridazin-3(2H)-one], the concentration for half-maximal inhibition (IC50) lay in the range of 10 to 100 µM.

`O=c1ccc(-c2cnc(N3CCC[C@H]3C(F)(F)F)nc2)nn1Cc1cncc(F)c1` [Compound 74, (S)-2-((5-fluoropyridin-3-yl)methyl)-6-(2-(2-(trifluoromethyl)pyrrolidin-1-yl)pyrimidin-5-yl)pyridazin-3(2H)-one] registered an IC50 of less than 10 µM.

In the case of `Cc1ncc(Cn2nc(-c3cnc(OCC(F)(F)F)nc3)ccc2=O)o1` [Compound 60, 2-((2-methyloxazol-5-yl)methyl)-6-(2-(2,2,2-trifluoroethoxy)pyrimidin-5-yl)pyridazin-3(2H)-one], the IC50 is less than 10 µM.

In the case of `Cc1ncc(-c2ccc(=O)n(Cc3cncc(F)c3)n2)cn1` [Compound 351], the IC50 is 10 to 100 µM.

Consider `O=c1ccc(-c2cnc(OCC(F)(F)F)nc2)nn1Cc1cnc(O)c(Cl)c1` [Compound 84, 2-((5-chloro-6-hydroxypyridin-3-yl)methyl)-6-(2-(2,2,2-trifluoroethoxy)pyrimidin-5-yl)pyridazin-3(2H)-one], for which the IC50 is greater than 100 µM.

In the case of `COC(=O)c1ccc(Cn2nc(-c3ccc(SC)cc3)ccc2=O)o1` [Compound 302, methyl 5-((3-(4-(methylthio)phenyl)-6-oxopyridazin-1(6H)-yl)methyl)furan-2-carboxylate], the IC50 was in the range of 10 to 100 µM.

`N#Cc1cncc(Cn2nc(-c3cnc(OCC(F)(F)F)nc3)ccc2=O)c1` [Compound 51, 5-((6-oxo-3-(2-(2,2,2-trifluoroethoxy)pyrimidin-5-yl)pyridazin-1(6H)-yl)methyl)nicotinonitrile] displayed an IC50 of less than 10 µM.

Take `O=c1ccc(-c2cnc(OCC(F)(F)F)nc2)nn1Cc1cccc(O)n1` [Compound 46, 2-((6-hydroxypyridin-2-yl)methyl)-6-(2-(2,2,2-trifluoroethoxy)pyrimidin-5-yl)pyridazin-3(2H)-one]: the IC50 is greater than 100 µM.

Turning to `O=c1ccc(-c2cnc(OCC(F)F)nc2)nn1Cc1cncc(F)c1` [Compound 106, 6-(2-(2,2-difluoroethoxy)pyrimidin-5-yl)-2-((5-fluoropyridin-3-yl)methyl)pyridazine-3(2H)-one], the IC50 was less than 10 µM.

As to `Cc1cnoc1Cn1nc(-c2cnc(OCC(F)(F)F)nc2)ccc1=O` [Compound 34, 2-((4-methylisoxazol-5-yl)methyl)-6-(2-(2,2,2-trifluoroethoxy)pyrimidin-5-yl)pyridazin-3(2H)-one], the IC50 is less than 10 µM.

`Cc1ncc(Cn2nc(-c3cnc(OCC(F)(F)F)nc3)ccc2=O)cc1F` [Compound 52, 2-((5-fluoro-6-methylpyridin-3-yl)methyl)-6-(2-(2,2,2-trifluoroethoxy)pyrimidin-5-yl)pyridazin-3(2H)-one] displayed an IC50 of less than 10 µM.

`O=c1ccc(-c2ccc(OC(F)F)cc2)nn1Cc1nnc(C2CC2)s1` [Compound 217, 2-((5-cyclopropyl-1,3,4-thiadiazol-2-yl)methyl)-6-(4-(difluoromethoxy)phenyl)-pyridazin-3(2H)-one] returned an IC50 of 10 to 100 µM.

For `O=c1ccc(-c2cnc(OCC(F)(F)F)nc2)nn1Cc1cc(-c2ccccc2)no1` [Compound 27, 2-((3-phenylisoxazol-5-yl)methyl)-6-(2-(2,2,2-trifluoroethoxy)pyrimidin-5-yl)pyridazin-3(2H)-one], the concentration for half-maximal inhibition (IC50) was less than 10 µM.

One may read the IC50 as the midpoint of a concentration-inhibition curve. High values mean weaker potency, low ones greater potency.
